The values below come from patent publication US20190112316A1, “THIAZOLO[3,2-A] PYRIMIDINONE AND OTHER HETEROBICYCLIC PYRIMIDINONE COMPOUNDS FOR USE IN MEDICAL THERAPY” (priority 2015, published 2019).

Each structure is given as a SMILES string. Converted amounts (≈) assume the structure as drawn.

The first data set has as its target T1, glucocerebrosidase (Gcase) (Homo sapiens, UniProt P04062).
T1 construct: micellar solution containing 10 nM GCase and 100 nM saposin C (Enzo ALX-201-262-C050)
T1 sequence (P04062 40-536): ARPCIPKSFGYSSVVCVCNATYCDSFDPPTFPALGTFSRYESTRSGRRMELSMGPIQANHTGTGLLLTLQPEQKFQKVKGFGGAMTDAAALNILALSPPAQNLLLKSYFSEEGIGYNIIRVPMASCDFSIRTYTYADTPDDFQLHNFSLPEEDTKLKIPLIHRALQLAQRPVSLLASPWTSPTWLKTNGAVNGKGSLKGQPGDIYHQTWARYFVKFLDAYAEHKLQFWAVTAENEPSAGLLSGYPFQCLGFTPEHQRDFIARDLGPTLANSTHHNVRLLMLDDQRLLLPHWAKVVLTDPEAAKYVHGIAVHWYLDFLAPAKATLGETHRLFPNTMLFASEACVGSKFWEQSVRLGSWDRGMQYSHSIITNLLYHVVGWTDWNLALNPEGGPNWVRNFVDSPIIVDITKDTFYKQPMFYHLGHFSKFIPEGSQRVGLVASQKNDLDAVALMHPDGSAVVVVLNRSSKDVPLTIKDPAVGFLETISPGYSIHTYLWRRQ
Nature of the data set: Glucocerebrosidase (Gcase) activation assay, 4-methylumbelliferyl-beta-D-glucopyranoside substrate, with saposin C. The conditions noted are these: read-out: Percent Gcase Activation 0.1 μM Test Compound. In kind it is biochemical. On the procedure: A 484 μL aliquot of a 1.0 mg/mL solution of phosphatidylserine (PS) (Sigma P7769) in chloroform was evaporated under a stream of nitrogen for 1 hour. The lipid film was dissolved over 4 minutes of vigorous vortexing in 40 mL of 176 mM K2HPO4/50 mM citric acid (pH 4.7) containing 7.5 μL of triton X-100, resulting in a mixed micellar preparation with a composition of 0.32 mM triton and 0.37 mol % PS. 4-Methylumbelliferyl-beta-D-glucopyranoside (ACROS-337025000) was dissolved in the micellar solution to a final concentration of 2 mM for use as the reaction substrate.
Test compounds were diluted to the desired concentrations with dimethylsulfoxide (DMSO) from 10 mM stocks, and 0.41 μL of the DMSO compound mixture was added to 100 μL of micellar solution containing 10 nM GCase and 100 nM saposin C (Enzo ALX-201-262-C050). Pre-incubation was allowed to occur for 30 minutes at room temperature, after which the reaction was initiated by combining 25 μL of substrate solution with 25 μL of compound/GCase/saposin mixture. The reaction proceeded for 15 minutes at room temperature and was stopped by adding 150 μL of 1M glycine, pH 12.5. The endpoint of the reaction was monitored by measuring fluorescence intensity (excitation: 365 nm; emission: 440 nm) on a SpectraMax i3 instrument (Molecular Devices). Test compounds were screened at 1.0 and 0.1 μM final concentration, and subsequent 8-point dose response curves were obtained using 3-fold dilutions from a maximum final concentration of 5 μM.
`CCC(C)c1ccc(NC(=O)c2cnc3ccccn3c2=O)cc1` (stereo not drawn): the activation at 0.1 µM was < 5%.

Regarding `Cc1cccc2ncc(C(=O)Nc3ccc4c(c3)OCCO4)c(=O)n12`, the activation at 0.1 µM was < 5%.

For the molecule `Cc1csc2ncc(C(=O)Nc3ccc(C(C)C)cc3)c(=O)n12`, the activation at 0.1 µM was in the range of 5 to 20%.

For `O=C(NC1CCc2ccccc2C1)c1cnc2n(c1=O)CCS2` (stereo not drawn), the activation at 0.1 µM was < 5%.

Take `C[C@@H](NC(=O)c1cnc2n(c1=O)CCS2)c1ccccc1`: the activation at 0.1 µM is < 5%.

For the molecule `CCc1ccc(CNC(=O)c2cnc3sccn3c2=O)cc1`, the activation at 0.1 µM is < 5%.

Regarding `CCc1ccc(NC(=O)c2cnc3ccccn3c2=O)cc1`, the activation at 0.1 µM is < 5%.

As to `O=C(NC1CCCCC12CCCCO2)c1cnc2n(c1=O)CCS2` (stereo not drawn), the activation at 0.1 µM was < 5%.

`CCCCC1CCC(NC(=O)c2cnc3n(c2=O)C(C)CS3)CC1` (stereo not drawn): the activation at 0.1 µM was 5 to 20%.

In the case of `Cc1cccc2ncc(C(=O)NC3CCc4ccccc4C3)c(=O)n12` (stereo not drawn), the activation at 0.1 µM was < 5%.

On to `CCC1CCC(NC(=O)c2cnc3sccn3c2=O)CC1` (stereo not drawn), for which the activation at 0.1 µM is 5 to 20%.

As for `Cc1cccc2ncc(C(=O)NC3CCCc4ccccc43)c(=O)n12` (stereo not drawn), the activation at 0.1 µM was 5 to 20%.

For `Cc1cccc2ncc(C(=O)NC3CCC(C)CC3)c(=O)n12` (stereo not drawn), the activation at 0.1 µM was < 5%.

As for `Cc1cccc2ncc(C(=O)Nc3ccc4c(c3)CN(C)C4)c(=O)n12`, the activation at 0.1 µM is < 5%.

As for `CCC(C)c1ccc(NC(=O)c2cnc3ccc(C)cn3c2=O)cc1` (stereo not drawn), the activation at 0.1 µM was < 5%.

On to `CC1CCC(NC(=O)c2cnc3n(c2=O)CCS3)CC1` (stereo not drawn), for which the activation at 0.1 µM is < 5%.

Consider `O=C(NC1Cc2ccccc2C1)c1cnc2sccn2c1=O`, for which the activation at 0.1 µM is 5 to 20%.

Take `O=C(Nc1ccc(N2CCCCC2)cc1)c1cnc2n(c1=O)CCS2`: the activation at 0.1 µM is < 5%.

Regarding `CCc1ccc(CCNC(=O)c2cnc3sccn3c2=O)cc1`, the activation at 0.1 µM is < 5%.

Regarding `O=C(NC1CCCC2(CCCCO2)C1)c1cnc2n(c1=O)CCS2` (stereo not drawn), the activation at 0.1 µM is < 5%.

`CCc1ccc(NC(=O)c2cnc3scc(C)n3c2=O)cc1`: the activation at 0.1 µM was < 5%.

The same data set, now with this note: read-out: Percent Gcase Activation 1 μM Test Compound.
Regarding `CCC(C)c1ccc(NC(=O)c2cnc3ccccn3c2=O)cc1` (stereo not drawn), the activation at 1 µM was 5 to 20%.

As for `Cc1cccc2ncc(C(=O)Nc3ccc4c(c3)OCCO4)c(=O)n12`, the activation at 1 µM is 5 to 20%.

`Cc1csc2ncc(C(=O)Nc3ccc(C(C)C)cc3)c(=O)n12`: the activation at 1 µM was > 20%.

Turning to `O=C(NC1CCc2ccccc2C1)c1cnc2n(c1=O)CCS2` (stereo not drawn), the activation at 1 µM lay in the range of 5 to 20%.

For `C[C@@H](NC(=O)c1cnc2n(c1=O)CCS2)c1ccccc1`, the activation at 1 µM is < 5%.

For the molecule `CCc1ccc(CNC(=O)c2cnc3sccn3c2=O)cc1`, the activation at 1 µM lay within 5 to 20%.

On to `CCc1ccc(NC(=O)c2cnc3ccccn3c2=O)cc1`, for which the activation at 1 µM fell in the range of 5 to 20%.

As for `O=C(NC1CCCCC12CCCCO2)c1cnc2n(c1=O)CCS2` (stereo not drawn), the activation at 1 µM is < 5%.

Consider `CCCCC1CCC(NC(=O)c2cnc3n(c2=O)C(C)CS3)CC1` (stereo not drawn), for which the activation at 1 µM was > 20%.

Take `Cc1cccc2ncc(C(=O)NC3CCc4ccccc4C3)c(=O)n12` (stereo not drawn): the activation at 1 µM is 5 to 20%.

Take `CCC1CCC(NC(=O)c2cnc3sccn3c2=O)CC1` (stereo not drawn): the activation at 1 µM is > 20%.

Turning to `Cc1cccc2ncc(C(=O)NC3CCCc4ccccc43)c(=O)n12` (stereo not drawn), the activation at 1 µM was > 20%.

Take `Cc1cccc2ncc(C(=O)NC3CCC(C)CC3)c(=O)n12` (stereo not drawn): the activation at 1 µM was > 20%.

With `Cc1cccc2ncc(C(=O)Nc3ccc4c(c3)CN(C)C4)c(=O)n12`, the activation at 1 µM is < 5%.

As for `CCC(C)c1ccc(NC(=O)c2cnc3ccc(C)cn3c2=O)cc1` (stereo not drawn), the activation at 1 µM fell in the range of 5 to 20%.

As for `CC1CCC(NC(=O)c2cnc3n(c2=O)CCS3)CC1` (stereo not drawn), the activation at 1 µM was in the range of 5 to 20%.

Consider `O=C(NC1Cc2ccccc2C1)c1cnc2sccn2c1=O`, for which the activation at 1 µM is > 20%.

`O=C(Nc1ccc(N2CCCCC2)cc1)c1cnc2n(c1=O)CCS2`: the activation at 1 µM is < 5%.

In the case of `CCc1ccc(CCNC(=O)c2cnc3sccn3c2=O)cc1`, the activation at 1 µM was 5 to 20%.

As to `O=C(NC1CCCC2(CCCCO2)C1)c1cnc2n(c1=O)CCS2` (stereo not drawn), the activation at 1 µM was < 5%.

For the molecule `CCc1ccc(NC(=O)c2cnc3scc(C)n3c2=O)cc1`, the activation at 1 µM was > 20%.

Test system in the next data set: not listed separately
Nature of the data set: Compound solubility in water. In kind it is physicochemical.
Settings: not given
Molecule `CCC(C)c1ccc(NC(=O)c2cnc3ccccn3c2=O)cc1` (stereo not drawn) displayed a solubility of 0.3 µg/mL (≈ 0.933 µM).

Molecule `Cc1cccc2ncc(C(=O)Nc3ccc4c(c3)OCCO4)c(=O)n12` came in with a solubility of 0.7 µg/mL (≈ 2.08 µM).

`Cc1csc2ncc(C(=O)Nc3ccc(C(C)C)cc3)c(=O)n12`: the concentration in solution (solubility) was 0.5 µg/mL (≈ 1.53 µM). This solubility and that of the molecule before are within 1.5-fold of each other.

With `O=C(NC1CCc2ccccc2C1)c1cnc2n(c1=O)CCS2` (stereo not drawn), the concentration in solution (solubility) was 30.7 µg/mL (≈ 93.8 µM). This solubility lies about 61-fold higher than the previous one.

As to `C[C@@H](NC(=O)c1cnc2n(c1=O)CCS2)c1ccccc1`, the solubility was found to be 36.8 µg/mL (≈ 122 µM). The solubility values of the last two molecules are within 1.5-fold of each other.

Molecule `CCc1ccc(CNC(=O)c2cnc3sccn3c2=O)cc1` displayed a solubility of 17 µg/mL (≈ 54.2 µM). This solubility is about 2.2-fold lower than that of the molecule before.

With `CCc1ccc(NC(=O)c2cnc3ccccn3c2=O)cc1`, the concentration in solution (solubility) came to 1 µg/mL (≈ 3.41 µM). This solubility is about 17-fold lower than that of the molecule before.

As for `O=C(NC1CCCCC12CCCCO2)c1cnc2n(c1=O)CCS2` (stereo not drawn), the concentration in solution (solubility) came to 37.2 µg/mL (≈ 106 µM).

For `CCCCC1CCC(NC(=O)c2cnc3n(c2=O)C(C)CS3)CC1` (stereo not drawn), the concentration in solution (solubility) was 1.3 µg/mL (≈ 3.72 µM).

In turn, `Cc1cccc2ncc(C(=O)NC3CCc4ccccc4C3)c(=O)n12` (stereo not drawn) came in with a solubility of 4.3 µg/mL (≈ 12.9 µM). This solubility is about 3.3-fold higher than that of the molecule before.

In turn, `CCC1CCC(NC(=O)c2cnc3sccn3c2=O)CC1` (stereo not drawn) yielded a solubility of 4.9 µg/mL (≈ 16 µM). The solubility values of the last two molecules are within 1.5-fold of each other.

Regarding `Cc1cccc2ncc(C(=O)NC3CCCc4ccccc43)c(=O)n12` (stereo not drawn), the concentration in solution (solubility) came to 13.9 µg/mL (≈ 41.7 µM).

Molecule `Cc1cccc2ncc(C(=O)NC3CCC(C)CC3)c(=O)n12` (stereo not drawn) yielded a solubility of 18.7 µg/mL (≈ 62.5 µM).

Regarding `Cc1cccc2ncc(C(=O)Nc3ccc4c(c3)CN(C)C4)c(=O)n12`, the solubility came out at 35.4 µg/mL (≈ 106 µM).

Regarding `CCC(C)c1ccc(NC(=O)c2cnc3ccc(C)cn3c2=O)cc1` (stereo not drawn), the concentration in solution (solubility) was 0.05 µg/mL (≈ 0.149 µM).

Molecule `CC1CCC(NC(=O)c2cnc3n(c2=O)CCS3)CC1` (stereo not drawn) displayed a solubility of 21.4 µg/mL (≈ 72.9 µM). Compared with the last molecule, the solubility is about 430-fold higher.

`O=C(NC1Cc2ccccc2C1)c1cnc2sccn2c1=O` gave a solubility of 1.2 µg/mL (≈ 3.85 µM).

`O=C(Nc1ccc(N2CCCCC2)cc1)c1cnc2n(c1=O)CCS2`: the concentration in solution (solubility) was 4 µg/mL (≈ 11.2 µM).

In the case of `CCc1ccc(CCNC(=O)c2cnc3sccn3c2=O)cc1`, the concentration in solution (solubility) was 2.5 µg/mL (≈ 7.64 µM). Against the preceding molecule, the solubility is about 1.6-fold lower.

`O=C(NC1CCCC2(CCCCO2)C1)c1cnc2n(c1=O)CCS2` (stereo not drawn) had a solubility of 36 µg/mL (≈ 103 µM).

Molecule `CCc1ccc(NC(=O)c2cnc3scc(C)n3c2=O)cc1` yielded a solubility of 1.1 µg/mL (≈ 3.51 µM).

As usually defined, the solubility is the concentration that dissolves in the medium under given conditions. Read a low solubility as a poorly soluble substance.
